# From patent publication US6190849A, “Photographic element containing ballasted tetrazole derivative and inhibitor releasing coupler” (priority 1999, dated 2001)
# What was measured:
# [1] = Contrast (gamma) reduction by DI(A)R in single layer film element, C-41 process; conditions: DIR at 0.055 mmol/m^2, relative to non-inhibitor containing check; KODAK FLEXICOLOR (C-41)
# Excerpt: The mild inhibitor fragments that are used in this invention are defined as those that cause less than a 45% gamma reduction, or more preferably less than a 40% gamma reduction, relative to a non-inhibitor containing check when coated as the following single layer film element on a cellulose triacetate film support (coverages are in g/m^2): […]
# Overcoat Gelatin at 2.79 and 0.02 bis-vinylsulfonemethylether
# Imaging Layer Gelatin at 2.79
# Magenta Image Coupler M-1 (dispersed at 80% by
# weight in tricresyl phosphate and 20% by weight
# N,N-dibutyl-2-butoxy-5-t-octylaniline) at 0.692
# DIR being tested at 0.055 mmol/m^2 (dispersed in twice
# its weight in N,N-dibutyllauramide)
# Green sensitized AgBrI at 1.08
# Samples of each element were given a stepped exposure and processed in the KODAK FLEXICOLOR (C-41) process as described in British Journal of Photography Annual, 1988, pp 196-198. Contrast of the elements was determined using the maximum slope between any two density points.
# [2] = Interimage in bilayer format: IDIR-2 in blue layer, IEM in green layer; conditions: for Cg /Cb+g (interimage): IEM or CIEM in green layer at 7.2×10^-3 mmol/m^2, higher ratio = more interimage, no-IEM check; for Relative Speed (green layer): IEM or CIEM in green layer, speed point +0.15 density above Dmin, normalized to check
# Experimental: Bilayer photographic elements were prepared by coating the following layers on a cellulose triacetate film support (coverages are in g/m^2). Unless otherwise noted, all comparative and inventive compounds were dispersed in twice their own weight of N,N-dibutyllauramide: […] Layer 3 (Interlayer): gelatin at 0.64, ILS-1 at 0.11 and FD-1 at 0.11. […] Layer 5 (Overcoat): gelatin at 2.79 and 0.02 bis-vinylsulfonemethylether. […] Contrast of the elements was determined using the maximum slope between any two density points. In this test, the ratio of the contrast of the green only exposure to the contrast of the green of a blue and green exposure (Cg /Cb+g) is a measure of the interimage. A higher ratio means more inhibition originating from the blue and affecting the green record. Relative speed of the green layer was determined by measuring the speed point +0.15 density units above Dmin and normalizing to the check position.
# [3] = Interimage in multilayer format (density change of receiver record); conditions: Table IV; IEM in green layer
# Excerpt: Multilayer Film Example ML-1:
# Layer 1 (Antihalation layer): black collodial silver sol at 0.135; ILS-1 at 0.162,
# Layer 2 (Slow cyan layer): a blend of two red sensitized (both with a mixture of RSD-1 and RSD-2) tabular silver iodobromide emulsions: (i) 0.66×0.12, 4.1 mole % I at 0.302 (ii) 0.55×0.08, 1.5 mole % I at 0.464; cyan dye-forming coupler C-1 at 0.535; DIR coupler CDIR-1 at 0.027; bleach accelerator releasing coupler B-1 at 0.057; masking coupler MC-1 at 0.032; and gelatin at 1.68.
# Layer 3 (Mid cyan layer): a blend of two red sensitized (same as above) tabular silver iodobromide emulsions: (i) […], 4.1 mole % I at 0.194 (ii) 1.07×0.11, 4.1 mole % I at 0.238; cyan coupler C-1 at 0.171; CDIR-1 at 0.019; MC-1 at 0.032; B-1 at 0.008; and gelatin at 1.08.
# Layer 4 (Fast cyan layer): a red sensitized (same as above) tabular silver iodobromide emulsion (1.33×0.12, 4.1 mole % I) at 0.594; C-1 at 0.184; CDIR-1 at 0.027; MC-1 at 0.022; and gelatin at 0.918.
# Layer 5 (Interlayer): ILS-1 at 0.086 and gelatin at 0.540.
# Layer 6 (Slow magenta layer): a blend of two green sensitized (both with a mixture of GSD-1 and GSD-2) silver iodobromide emulsions: (i) 0.81×0.12, 2.6 mole % iodide at 0.346 and (ii) 0.55×0.08, 1.5 mole % iodide at 0.130; magenta dye forming coupler M-1 at 0.270; MC-2 at 0.086; IDIR-5 at 0.011; and gelatin at 1.08.
# Layer 7 (Mid magenta layer): a blend of two green sensitized (same as above) tabular silver iodobromide emulsions (i) 1.22×0.11, 4.1 mole % I at 0.248 and (ii) 1.07×0.11, 4.1 mole % I at 0.248; M-1 at 0.124; MC-2 at 0.119; IDIR-5 at 0.043; OxDS-2 at 0.016; and gelatin at 1.22.
# Layer 8 (Fast magenta layer): a green sensitized tabular silver iodobromide (1.33×0.12, 4.1 mole % I) emulsion at 0.486; M-1 at 0.076; MC-2 at 0.054; B-1 at 0.003; IDIR-5 at 0.015; OxDS-2 at 0.009; and gelatin at 1.02.
# Layer 9 (Yellow filter layer): yellow filter dye FD-1 at 0.054; ILS-1 at 0.086; and gelatin at 0.648.
# Layer 10 (Slow yellow layer): a blend of three blue sensitized (all with a mixture of BSD-1 and BSD-2) tabular silver iodobromide emulsions (i) 0.55×0.08, 1.5 mole % I at 0.270 (ii) […], 1.5 mole % I at 0.248 and (iii) 1.25×0.14, 4.1 mole % I at 0.400; yellow dye forming coupler Y-2 at 1.08; IDIR-6 at 0.076; CDIR-1 at 0.032; B-1 at 0.022; and gelatin at 1.879.
# Layer 11 (Fast yellow layer): a blend of two blue sensitized (both with a mixture of BSD-1 and BSD-2) tabular silver iodobromide emulsions (i) 1.25×0.14, 4.1 mole % I at 0.108 (ii) 2.67×0.13, 4.1 mole % I at 0.378; Y-2 at 0.238; IDIR-6 at 0.076; B-1 at 0.005; and gelatin at 0.810.
# Layer 12 (Protective overcoat and UV filter layer): silver bromide Lippman emulsion at 0.216; UV-1 at a total of 0.108; gelatin at 1.242 and bis(vinylsulfonyl)methane hardener at 1.75% of total gelatin weight.
# Surfactants, coating aids, emulsion addenda, sequestrants, thickeners, lubricants, matte and tinting dyes were added to the appropriate layers as is common in the art. […]
# These multilayer coatings were given a stepped exposure in one color record but only flashed (non-imagewise exposure) in the other two records and processed as described for the bilayer experiments. To monitor interimage, a step nearest to density of 1.5 in the stepped color record (the causer) was chosen, and the difference in density of the other color records (the receivers) at that step and at the no exposure step of the causer was determined. […]
SMILES,% Contrast Reduction [1] [%],Cg /Cb+g (interimage) [2],Relative Speed (green layer) [2],"interimage, in words [3]"
CCCCCCCCCCCCCCCCS(=O)(=O)Nc1ccc(Cl)c(NC(=O)C(Oc2ccc([N+](=O)[O-])cc2CN(CC)C(=O)Sc2nnnn2-c2ccccc2)C(=O)C(C)(C)C)c1 (centres unmarked) [CDIR-7],-63.9,,,
CCCCCCCCOC(=O)CSCCn1nn[nH]c1=S [IEM-6],,1.31,0.99,
CCCCCCCCCCCCCCCCS(=O)(=O)Nc1cc(CSc2nnnn2CC(=O)OCCC)ccc1Oc1cc(C(N)=O)c(O)c2ccccc12 [IDIR-1],-34.5,,,
CCCCCCCCCCCCCCCCS(=O)(=O)Nc1ccc(Cl)c(NC(=O)C(C(=O)C(C)(C)C)n2nc(C)c(C(=O)OCCCCCC)n2)c1 (centres unmarked) [CDIR-10],-53.8,,,
CCCCCCCCCCCCOc1ccc(C)cc1NC(=O)c1cc(Oc2ccc(CSc3nnnn3CC(=O)OCCC)cc2[N+](=O)[O-])c2ccccc2c1O [IDIR-3],-24.5,,,
CCCCCCCCCOC(=O)C(CCSC)n1nn[nH]c1=S (centres unmarked) [IEM-5],,1.39,0.96,
CCCCCCCCCCCCOC(=O)C(C)OC(=O)c1ccc(Cl)c(NC(=O)C(C(=O)Nc2cc(C(=O)OC(C)C(=O)OCCCCCCCCCCCC)ccc2Cl)n2nnc3cc(Cl)c(Cl)cc32)c1 (centres unmarked) [IDIR-7],-20.0,,,
CCCCCCCCCCC(=O)Nc1cccc(-n2nn[nH]c2=S)c1 [IEM-11],,1.29,0.99,
CCCCOC(=O)CSCCn1nn[nH]c1=S [IEM-7],,1.75,0.95,
CCCCCCCCCCCCCCOc1ccccc1NC(=O)c1cc(Oc2ccc(CSc3nnnn3Cc3ccc(OC)cc3)cc2[N+](=O)[O-])c2ccccc2c1O [CDIR-1],-55.4,,,Interimage is not increased
CCCCCCCOC(=O)C(CCC)n1nn[nH]c1=S (centres unmarked) [IEM-8],,2.02,0.91,
CCCCCCCCCCCCCCCCS(=O)(=O)Nc1ccc(Cl)c(NC(=O)C(C(=O)C(C)(C)C)n2ncc(SCC(=O)OCCCCCC)n2)c1 (centres unmarked) [CDIR-11],-58.6,,,
CCn1nn[nH]c1=S [CIEM-4],,1.22,1.00,
O=C(O)Cn1nn[nH]c1=S [CIEM-3],,1.23,0.99,
CCCCCCCCCCCCCCCCS(=O)(=O)Nc1ccc(Cl)c(NC(=O)C(Oc2ccc([N+](=O)[O-])cc2CN(CC)C(=O)Sc2nnnn2CC(=O)OCCC)C(=O)C(C)(C)C)c1 (centres unmarked) [IDIR-2],-25.3,,,
O=C(CSCCn1nn[nH]c1=S)OC1CCCCC1 [IEM-3],,1.85,0.91,
CCCCCCCCCCCCCCOc1ccccc1NC(=O)c1cc(Sc2nnnn2CC)c2ccccc2c1O [IDIR-8],-2.4,,,

SMILES,% Contrast Reduction [1] [%],Cg /Cb+g (interimage) [2],Relative Speed (green layer) [2],"interimage, in words [3]"
CCC(C)OC(=O)C(CCSC)n1nn[nH]c1=S (centres unmarked) [CIEM-6],,1.72,0.90,
CCCCCCCCCCCCCCOc1ccccc1NC(=O)c1cc(Oc2ccc(CSc3nnnn3-c3ccccc3)cc2[N+](=O)[O-])c2ccccc2c1O [CDIR-4],-77.1,,,
CCCCCCCCCCC(Oc1ccc(S(=O)(=O)c2ccc(O)cc2)cc1)C(=O)Nc1ccc(N2N=C(C)C(n3nc(C)c(C(=O)OCCCCCC)n3)C2=O)cc1 (centres unmarked) [CDIR-9],-50.1,,,
CCCOC(=O)Cn1nnnc1SC1C(=O)N(c2ccc(NC(=O)C(CC)Oc3ccc(C(C)(C)CC)cc3C(C)(C)CC)cc2)N=C1N1CCCC1 (centres unmarked) [IDIR-4],-22.6,,,
CCCCCCCCCCCCCCOc1ccccc1NC(=O)c1cc(Oc2ccc([N+](=O)[O-])cc2CN(C(=O)Sc2nnnn2-c2ccccc2)C(C)C)c2ccccc2c1O [CDIR-3],-75.7,,,
CCCCCCCC(=O)Nc1cccc(-n2nn[nH]c2=S)c1 [IEM-10],,1.96,0.91,
CCCCCC(=O)Nc1cccc(-n2nn[nH]c2=S)c1 [IEM-9],,2.20,0.91,
CCC(Oc1ccc(C(C)(C)CC)cc1C(C)(C)CC)C(=O)Nc1ccc(N2N=C(N3CCCC3)C(Sc3nnnn3-c3ccccc3)C2=O)cc1 (centres unmarked) [CDIR-2],-67.1,,,
S=c1[nH]nnn1-c1ccccc1 [CIEM-2],,1.44,0.91,
CCCCCCCCCCCCCCOc1ccccc1NC(=O)c1cc(Sc2nnnn2-c2ccccc2)c2ccccc2c1O [CDIR-6],-75.4,,,
CCCCCCCCCCCCCCOc1ccccc1NC(=O)c1cc(Oc2ccc(CSc3nnnn3-c3ccccc3)cc2[N+](=O)[O-])c2ccccc2c1O [CDIR-5],-70.5,,,
O=C(O)c1ccc(-n2nn[nH]c2=S)cc1 [CIEM-9],,1.21,1.00,
CCn1nn[nH]c1=S [CIEM-5],,1.23,1.00,
CCCCCCOC(=O)c1nn(C2C(=O)N(c3ccc(NC(=O)C(CC)Oc4ccc(C(C)(C)CC)cc4C(C)(C)CC)cc3)N=C2C)nc1C (centres unmarked) [CDIR-8],-49.2,,,
CSCC(=O)Nc1cccc(-n2nn[nH]c2=S)c1 [CIEM-8],,1.47,0.92,
CSCC(CSC)OC(=O)CCn1nn[nH]c1=S [CIEM-7],,1.45,0.90,
